Consider 5 substances from patent publication US9833497B2, “Human originated EGF domain proteins and use of the same” (CHENGDU SOURCEBIO LIMITED-LIABILITY COMPANY, priority 2013, dated 2017).

Common to all, as to format: cell-based
One test deals with Enterobacter cloacae. Nature of the test: MIC against Gram-negative bacteria: Enterobacter cloacae. The note with it: 5×10^5 CFU/mL. In outline:
(§1)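 LB broth cultures at McFarland 0.5, spun down, resuspended, diluted to 5×10^5 CFU/mL final. Two-fold serial dilutions of purified human EGF domain proteins, triplicate. 37° C, 175 rpm shaking. Endpoint: no visible growth.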

For another test, the system named is Proteus vulgaris. The experiment in a line: MIC against Gram-negative bacteria: Proteus vulgaris. The note with it: 5×10^5 CFU/mL. An outline of the steps:
as §1

For a further test, the system named is E. coli DH5α. Nature of the test: Antibacterial activity: MIC and growth curve against E. coli DH5α in 96-well plate. The note with it: minimal inhibitory concentration against E. coli DH5α; 96-well plate, 5×10^5 CFU/mL, 37° C., judged after 8 h. An outline of the steps:
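Log-phase bacteria (OD600 ~0.5) resuspended in LB at 5×10^5 CFU/mL, exposed to recombinant protein at 50, 25, 12.5 μg/mL final in triplicate, 37 °C shaking at 175 rpm. OD600 read every 30 min; MIC is lowest concentration showing no growth.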

For the next test, the system named is Serratia marcescens. Nature of the test: MIC against Gram-negative bacteria: Serratia marcescens. The note with it: 5×10^5 CFU/mL. An outline of the steps: as §1
The test system of another test is Aeromonas hydrophila. The experiment in a line: MIC against Gram-negative bacteria: Aeromonas hydrophila. The note with it: 5×10^5 CFU/mL. In outline: as §1
The subject of a further test is E. coli BL21. The experiment in a line: MIC against Gram-negative bacteria: E. coli BL21. The note with it: 5×10^5 CFU/mL. An outline of the steps:
as §1

In a further test the test system is Proteus mirabilis. The experiment in a line: MIC against Gram-negative bacteria: Proteus mirabilis. The note with it: 5×10^5 CFU/mL. In outline:
as §1

A further test concerns Klebsiella pneumonia. Nature of the test: MIC against Gram-negative bacteria: Klebsiella pneumonia. The note with it: 5×10^5 CFU/mL. In outline: as §1
The next test deals with Citrobacter diversus. Nature of the test: MIC against Gram-negative bacteria: Citrobacter diversus. The note with it: 5×10^5 CFU/mL. An outline of the steps:
as §1

The subject of a further test is Pseudomonas aeruginosa. Nature of the test: MIC against Gram-negative bacteria: Pseudomonas aeruginosa. The note with it: 5×10^5 CFU/mL. In outline: as §1
Another test has as its system Moraxella catarrhalis. Nature of the test: MIC against Gram-negative bacteria: Moraxella catarrhalis. The note with it: 5×10^5 CFU/mL. In outline: as §1
The mark [1] stands for this setting: 10 h cultivation at 37° C., two-fold serial dilution.

Turning to “PRT545 (CNCSGPGIQELTDPTCDTDSGQCKCRPNVTGRRCDTCSPGFHGYPRCRP; listed as Homo sapiens)”, the “MIC against E. cloacae” value against Enterobacter cloacae (96-well plate, 37° C., 10 h) came out at 12.5 µg/mL. In the test on Proteus vulgaris (96-well plate, 37° C., 10 h), the “MIC against P. vulgaris” value came to 12.5 µg/mL. The MIC (as a rule, the smallest concentration in the dilution series that meets the test's criterion for growth inhibition) against E. coli DH5α amounted to 12.5 µg/mL. In addition, in the test on Serratia marcescens (96-well plate, 37° C., 10 h), the “MIC against S. marcescens” value stood at 50 µg/mL. The “MIC against A. hydrophila” value against Aeromonas hydrophila (96-well plate, 37° C., 10 h) stood at 25 µg/mL. The “MIC against E. coli BL21” value in the test with E. coli BL21 (96-well plate, 37° C., 10 h) was 12.5 µg/mL. Besides, in the test with Proteus mirabilis (96-well plate, 37° C., 10 h), the “MIC against P. mirabilis” value is 12.5 µg/mL. Besides, the “MIC against K. pneumonia” value in the test with Klebsiella pneumonia (96-well plate, 37° C., 10 h) was determined as 25 µg/mL. In addition, the “MIC against C. diversus” value with Citrobacter diversus (96-well plate, 37° C., 10 h) was determined as 12.5 µg/mL. Further, the “MIC against P. aeruginosa” value against Pseudomonas aeruginosa (96-well plate, 37° C., 10 h) is 12.5 µg/mL. Also, the “MIC against M. catarrhalis” value against Moraxella catarrhalis (96-well plate, 37° C., 10 h) turned out to be 12.5 µg/mL.
Consider “PRT1423 (PVDPCFRANCEYQCQPLNQTSYLCVCAEGFAPIPHEPHRCQ; listed as Homo sapiens)”, for which the “MIC against E. cloacae” value in the test with Enterobacter cloacae (Enterobacter cloacae, 10 h cultivation at 37° C.) was found to be 12.5 µg/mL. Further, the “MIC against P. vulgaris” value in the test on Proteus vulgaris (Proteus vulgaris, 10 h cultivation at 37° C.) was 50 µg/mL. The substance further yielded an MIC against E. coli DH5α of 50 µg/mL. In addition, the “MIC against S. marcescens” value in the test on Serratia marcescens (Serratia marcescens, 10 h cultivation at 37° C.) was 12.5 µg/mL. The “MIC against A. hydrophila” value with Aeromonas hydrophila (Aeromonas hydrophila, 10 h cultivation at 37° C.) was determined as 12.5 µg/mL. The “MIC against E. coli BL21” value with E. coli BL21 (E. coli BL21, 10 h cultivation at 37° C.) amounted to 12.5 µg/mL. Besides, in the test with Proteus mirabilis (Proteus mirabilis, 10 h cultivation at 37° C.), the “MIC against P. mirabilis” value stood at 12.5 µg/mL. Also, in the test on Klebsiella pneumonia (Klebsiella pneumonia, 10 h cultivation at 37° C.), the “MIC against K. pneumonia” value was determined as 12.5 µg/mL. In addition, in the test with Citrobacter diversus (Citrobacter diversus, 10 h cultivation at 37° C.), the “MIC against C. diversus” value amounted to 25 µg/mL. Further, the “MIC against P. aeruginosa” value in the test on Pseudomonas aeruginosa (Pseudomonas aeruginosa, 10 h cultivation at 37° C.) was determined as 12.5 µg/mL. Moreover, the “MIC against M. catarrhalis” value in the test on Moraxella catarrhalis (Moraxella catarrhalis, 10 h cultivation at 37° C.) was found to be 50 µg/mL.
“PRT563 (CVCNYLGTVQEHCNGSDCQCDKATGQCLCLPNVIGQNCDRCAPNTWQLASGTGCDP; listed as Homo sapiens)”: the “MIC against E. cloacae” value with Enterobacter cloacae (96-well plate, 37° C., 10 h) is 25 µg/mL. The “MIC against P. vulgaris” value in the test on Proteus vulgaris (96-well plate, 37° C., 10 h) worked out at 12.5 µg/mL. For the same substance, in the test with E. coli DH5α, the MIC came out at 25 µg/mL. Moreover, in the test on Serratia marcescens (96-well plate, 37° C., 10 h), the “MIC against S. marcescens” value was 25 µg/mL. The “MIC against A. hydrophila” value against Aeromonas hydrophila (96-well plate, 37° C., 10 h) was found to be 12.5 µg/mL. In the test with E. coli BL21 (96-well plate, 37° C., 10 h), the “MIC against E. coli BL21” value was 12.5 µg/mL. Also, the “MIC against P. mirabilis” value with Proteus mirabilis (96-well plate, 37° C., 10 h) is 25 µg/mL. Moreover, the “MIC against K. pneumonia” value in the test with Klebsiella pneumonia (96-well plate, 37° C., 10 h) was determined as 50 µg/mL. In the test with Citrobacter diversus (96-well plate, 37° C., 10 h), the “MIC against C. diversus” value was found to be 25 µg/mL. Further, the “MIC against P. aeruginosa” value in the test on Pseudomonas aeruginosa (96-well plate, 37° C., 10 h) was determined as 25 µg/mL. In the test on Moraxella catarrhalis (96-well plate, 37° C., 10 h), the “MIC against M. catarrhalis” value came out at 50 µg/mL.
Turning to “PRT93 (PLLHCAPGFCFPGVACIQTESGARCGPCPAGFTGNGSHCT; listed as Homo sapiens)”, the “MIC (μg/mL) E. cloacae” value against Enterobacter cloacae (Enterobacter cloacae, 96-well plate, 37° C., 10 h) amounted to 12.5 µg/mL. Also, the “MIC (μg/mL) P. vulgaris” value in the test with Proteus vulgaris (Proteus vulgaris, 96-well plate, 37° C., 10 h) is 12.5 µg/mL. The substance further gave an MIC against E. coli DH5α of 50 µg/mL. Moreover, in the test on Serratia marcescens (Serratia marcescens, 96-well plate, 37° C., 10 h), the “MIC (μg/mL) S. marcescens” value came to 12.5 µg/mL. The “MIC (μg/mL) A. hydrophila” value against Aeromonas hydrophila (Aeromonas hydrophila, 96-well plate, 37° C., 10 h) is 25 µg/mL. In addition, the “MIC (μg/mL) E. coli BL21” value with E. coli BL21 (E. coli BL21, 96-well plate, 37° C., 10 h) came out at 12.5 µg/mL. Moreover, the “MIC (μg/mL) P. mirabilis” value with Proteus mirabilis (Proteus mirabilis, 96-well plate, 37° C., 10 h) was found to be 12.5 µg/mL. In the test on Klebsiella pneumonia (Klebsiella pneumonia, 96-well plate, 37° C., 10 h), the “MIC (μg/mL) K. pneumonia” value was 12.5 µg/mL. In addition, in the test on Citrobacter diversus (Citrobacter diversus, 96-well plate, 37° C., 10 h), the “MIC (μg/mL) C. diversus” value is 100 µg/mL. The “MIC (μg/mL) P. aeruginosa” value in the test with Pseudomonas aeruginosa (Pseudomonas aeruginosa, 96-well plate, 37° C., 10 h) worked out at 50 µg/mL. Moreover, the “MIC (μg/mL) M. catarrhalis” value with Moraxella catarrhalis (Moraxella catarrhalis, 96-well plate, 37° C., 10 h) was determined as 25 µg/mL.
“PRT1077 (RSHACENDQYGKPGGCSDICLLANSHKARTCRCRSGFSLGSDGKSCK; listed as Homo sapiens)”: the “MIC E. cloacae” value in the test on Enterobacter cloacae (setting [1]) is 25 µg/mL. The “MIC P. vulgaris” value in the test on Proteus vulgaris (setting [1]) is 50 µg/mL. Moreover, the MIC against E. coli DH5α is 12.5 µg/mL. The “MIC S. marcescens” value with Serratia marcescens (setting [1]) stood at 12.5 µg/mL. For the same substance, in the test with Aeromonas hydrophila (setting [1]), the “MIC A. hydrophila” value was found to be 25 µg/mL. In addition, the “MIC E. coli BL21” value in the test with E. coli BL21 (setting [1]) turned out to be 12.5 µg/mL. The “MIC P. mirabilis” value in the test with Proteus mirabilis (setting [1]) was 25 µg/mL. Also, in the test with Klebsiella pneumonia (setting [1]), the “MIC K. pneumonia” value came out at 50 µg/mL. In the test with Citrobacter diversus (setting [1]), the “MIC C. diversus” value is 25 µg/mL. Also, the “MIC P. aeruginosa” value in the test on Pseudomonas aeruginosa (setting [1]) stood at 12.5 µg/mL. Also, in the test on Moraxella catarrhalis (setting [1]), the “MIC M. catarrhalis” value worked out at 25 µg/mL.
